Assay [1] deals with Blumeria graminis f. sp. tritici (Erysiphe graminis f. sp. tritici). Nature of the assay: Blumeria graminis f. sp. tritici / wheat / leaf disc preventative (powdery mildew on wheat). To be noted: 200 ppm, wheat leaf segments cv. Kanzler, inoculated 1 day after application, compared to untreated control. Format: in vivo. On the procedure:
Leaf disks or leaf segments of various plant species are cut from plants grown in a greenhouse. The cut leaf disks or segments are placed in multiwell plates (24-well format) onto water agar. The leaf disks are sprayed with a test solution before (preventative) or after (curative) inoculation. Compounds to be tested are prepared as DMSO solutions (max. 10 mg/mL) which are diluted to the appropriate concentration with 0.025% Tween20 just before spraying. The inoculated leaf disks or segments are incubated under defined conditions (temperature, relative humidity, light, etc.) according to the respective test system. A single evaluation of disease level is carried out 3 to 14 days after inoculation, depending on the pathosystem. Percent disease control relative to the untreated check leaf disks or segments is then calculated. Wheat leaf segments cv. Kanzler are placed on agar in a multiwell plate (24-well format) and sprayed with the formulated test compound diluted in water. […] The inoculated leaf disks are incubated at 20° C. and 60% rh under a light regime of 24 h darkness followed by 12 h light/12 h darkness in a climate chamber and the activity of a compound is assessed as percent disease control compared to untreated when an appropriate level of disease damage appears on untreated check leaf segments (6-8 days after application).

The subject of assay [2] is Glomerella lagenarium (Colletotrichum lagenarium). Nature of the assay: Glomerella lagenarium (Colletotrichum lagenarium) / liquid culture (anthracnose). Format: cell-based. To be noted: Colletotrichum orbiculare, liquid culture (PDB), growth inhibition photometrically 3-4 days after application, compared to untreated control. On the procedure: (§1) Mycelia fragments or conidia suspensions of a fungus prepared either freshly from liquid cultures of the fungus or from cryogenic storage, are directly mixed into nutrient broth. DMSO solutions of the test compound (max. 10 mg/mL) are diluted with 0.025% Tween20 by a factor of 50 and 10 μL of this solution is pipetted into a microtiter plate (96-well format). The nutrient broth containing the fungal spores/mycelia fragments is then added to give an end concentration of the tested compound. The test plates are incubated in the dark at 24° C. and 96% relative humidity. The inhibition of fungal growth is determined photometrically after 2 to 7 days, depending on the pathosystem, and percent antifungal activity relative to the untreated check is calculated. Conidia of the fungus from cryogenic storage are directly mixed into nutrient broth (PDB potato dextrose broth). After placing a (DMSO) solution of test compound into a microtiter plate (96-well format), the nutrient broth containing the fungal spores is added. The test plates are incubated at 24° C. and the inhibition of growth is measured photometrically 3-4 days after application.

In assay [3] the test system is Phaeosphaeria nodorum (Septoria nodorum). Nature of the assay: Phaeosphaeria nodorum (Septoria nodorum) / wheat / leaf disc preventative (glume blotch). Format: in vivo. The following applies: 200 ppm, wheat leaf segments cv. Kanzler, inoculated 2 days after application, compared to untreated control. On the procedure: Leaf disks or leaf segments of various plant species are cut from plants grown in a greenhouse. The cut leaf disks or segments are placed in multiwell plates (24-well format) onto water agar. The leaf disks are sprayed with a test solution before (preventative) or after (curative) inoculation. Compounds to be tested are prepared as DMSO solutions (max. 10 mg/mL) which are diluted to the appropriate concentration with 0.025% Tween20 just before spraying. The inoculated leaf disks or segments are incubated under defined conditions (temperature, relative humidity, light, etc.) according to the respective test system. A single evaluation of disease level is carried out 3 to 14 days after inoculation, depending on the pathosystem. Percent disease control relative to the untreated check leaf disks or segments is then calculated. Wheat leaf segments cv. Kanzler are placed on agar in a multiwell plate (24-well format) and sprayed with the formulated test compound diluted in water. […] The inoculated test leaf disks are incubated at 20° C. and 75% rh under a light regime of 12 h light/12 h darkness in a climate cabinet and the activity of a compound is assessed as percent disease control compared to untreated when an appropriate level of disease damage appears in untreated check leaf disks (5-7 days after application).

The test system of assay [4] is Botryotinia fuckeliana (Botrytis cinerea). Nature of the assay: Botryotinia fuckeliana (Botrytis cinerea) / liquid culture (gray mould). In kind it is cell-based. To be noted: liquid culture (Vogels broth), growth inhibition photometrically 3-4 days after application, compared to untreated control. On the procedure:
as §1, with “(Vogels” for “(PDB potato dextrose”, “determined” for “measured”

For assay [5], the system named is Puccinia recondita f. sp. tritici. Briefly: Puccinia recondita f. sp. tritici / wheat / leaf disc curative (brown rust). Format: in vivo. To be noted: 200 ppm, wheat leaf segments cv. Kanzler, applied 1 day after inoculation, compared to untreated control.

The structures appear in SMILES notation. Bounds are passed on as bounds.

A word on the inhibition of growth: it is the drop in the measured response relative to a control, in per cent. Lower therefore signals little suppression. For the compound `O=C(NC[C@H](F)c1ccc(Cl)cc1Cl)c1c(Oc2cccc(C3CC3)c2)cnc2c(Cl)cnn12` (single isomer, unassigned) [Compound P-1.16], the “control of Blumeria graminis f. sp. tritici” value in assay [1] was “at least 80%”. The inhibition of growth at 20 ppm in assay [2] and in assay [4] was not below 80% in each case. Besides, the “control of Phaeosphaeria nodorum” value in assay [3] is “at least 80%”.

As for `O=C(NCC(F)c1ccc(Cl)cc1Cl)c1c(Oc2cccc(C3CC3)c2)cnc2nccn12` (stereo not shown) [Compound P-1.1, 6-(3-cyclopropylphenoxy)-N-[2-(2,4-dichlorophenyl)-2-fluoro-ethyl]imidazo[1,2-a]pyrimidine-5-carboxamide], the inhibition of growth at 20 ppm in assay [2] and in assay [4] was not below 80% throughout.

As to `O=C(NCC(F)c1ccc(Cl)cc1Cl)c1c(Oc2cccc(C3CC3)c2)cnc2ncnn12` (stereo not shown) [Compound P-1.2, 6-(3-cyclopropylphenoxy)-N-[2-(2,4-dichlorophenyl)-2-fluoro-ethyl]-[1,2,4]triazolo[1,5-a]pyrimidine-7-carboxamide], the inhibition of growth at 20 ppm in assay [2] and in assay [4] was not below 80% throughout.

Consider `O=C(NCC(F)c1ccc(Cl)cc1Cl)c1c(Oc2cccc(C3CC3)c2)cnc2ccnn12` (stereo not shown) [Compound P-1.3, 6-(3-cyclopropylphenoxy)-N-[2-(2,4-dichlorophenyl)-2-fluoro-ethyl]pyrazolo[1,5-a]pyrimidine-7-carboxamide], for which the inhibition of growth at 20 ppm in assay [2] and in assay [4] was not below 80% each time.

On to `O=C(NCCc1ccc(Cl)cc1Cl)c1c(Oc2cccc(C3CC3)c2)cnc2ncnn12` [Compound P-1.5, 6-(3-cyclopropylphenoxy)-N-[2-(2,4-dichlorophenyl)ethyl]-[1,2,4]triazolo[1,5-a]pyrimidine-7-carboxamide], for which, in assay [4], the inhibition of growth at 20 ppm was not below 80%.

Consider `O=C(NCCc1ccc(Cl)cc1Cl)c1c(Oc2cccc(C3CC3)c2)cnc2nccn12` [Compound P-1.6, 6-(3-cyclopropylphenoxy)-N-[2-(2,4-dichlorophenyl)ethyl]imidazo[1,2-a]pyrimidine-5-carboxamide], for which the inhibition of growth at 20 ppm in assay [2] was not below 80%.

As to `Cc1cn2c(C(=O)NCC(F)c3ccc(Cl)cc3Cl)c(Oc3cccc(C4CC4)c3)cnc2n1` (stereo not shown) [Compound P-1.7, 6-(3-cyclopropylphenoxy)-N-[2-(2,4-dichlorophenyl)-2-fluoro-ethyl]-2-methyl-imidazo[1,2-a]pyrimidine-5-carboxamide], the inhibition of growth at 20 ppm in assay [2] and in assay [4] was not below 80% in each case.

Regarding `N#Cc1cc2ncc(Oc3cccc(C4CC4)c3)c(C(=O)NCC(F)c3ccc(Cl)cc3Cl)n2n1` (stereo not shown) [Compound P-1.8, 2-cyano-6-(3-cyclopropylphenoxy)-N-[2-(2,4-dichlorophenyl)-2-fluoro-ethyl]pyrazolo[1,5-a]pyrimidine-7-carboxamide], the inhibition of growth at 20 ppm in assay [2] and in assay [4] was not below 80% each time. Moreover, the “control of Puccinia recondita f. sp. tritici” value in assay [5] is on record as “at least 80%”.

Regarding `O=C(NCC(F)c1ccc(Cl)cc1Cl)c1c(Oc2cccc(C3CC3)c2)cnc2cc(F)nn12` (stereo not shown) [Compound P-1.10, 6-(3-cyclopropylphenoxy)-N-[2-(2,4-dichlorophenyl)-2-fluoro-ethyl]-2-fluoro-pyrazolo[1,5-a]pyrimidine-7-carboxamide], the inhibition of growth at 20 ppm in assay [2] and in assay [4] was not below 80% in each case.

Take `Cc1cnn2c(C(=O)NCC(F)c3ccc(Cl)cc3Cl)c(Oc3cccc(C4CC4)c3)cnc12` (stereo not shown) [Compound P-1.11, 6-(3-cyclopropylphenoxy)-N-[2-(2,4-dichlorophenyl)-2-fluoro-ethyl]-3-methyl-pyrazolo[1,5-a]pyrimidine-7-carboxamide]: the inhibition of growth at 20 ppm in assay [2] and in assay [4] was not below 80% throughout.

`O=C(NCC(F)c1ccc(Cl)cc1Cl)c1c(Oc2cccc(C3CC3)c2)cnc2cc(Cl)nn12` (stereo not shown) [Compound P-1.12, 2-chloro-6-(3-cyclopropylphenoxy)-N-[2-(2,4-dichlorophenyl)-2-fluoro-ethyl]pyrazolo[1,5-a]pyrimidine-7-carboxamide]: the inhibition of growth at 20 ppm in assay [2] and in assay [4] was not below 80% throughout.

Consider `Cc1nc2ncc(Oc3cccc(C4CC4)c3)c(C(=O)NCC(F)c3ccc(Cl)cc3Cl)n2n1` (stereo not shown) [Compound P-1.14, 6-(3-cyclopropylphenoxy)-N-[2-(2,4-dichlorophenyl)-2-fluoro-ethyl]-2-methyl-[1,2,4]triazolo[1,5-a]pyrimidine-7-carboxamide], for which the inhibition of growth at 20 ppm in assay [2] and in assay [4] was not below 80% throughout.

Turning to `O=C(NCC(F)c1ccc(Cl)cc1Cl)c1c(Oc2cccc(C3CC3)c2)cnn2nccc12` (stereo not shown) [Compound P-1.15, 5-(3-cyclopropylphenoxy)-N-[2-(2,4-dichlorophenyl)-2-fluoro-ethyl]pyrazolo[1,5-b]pyridazine-4-carboxamide], the inhibition of growth at 20 ppm in assay [2] and in assay [4] was not below 80% in each case.

With `COc1nn2c(C(=O)NCC(F)c3ccc(Cl)cc3Cl)c(Oc3cccc(C4CC4)c3)cnc2c1C#N` (stereo not shown) [Compound P-1.18, 3-cyano-6-(3-cyclopropylphenoxy)-N-[2-(2,4-dichlorophenyl)-2-fluoro-ethyl]-2-methoxy-pyrazolo[1,5-a]pyrimidine-7-carboxamide], in assay [4], the inhibition of growth at 20 ppm was not below 80%.

For `Cc1nn2c(C(=O)NCC(F)c3ccc(Cl)cc3Cl)c(Oc3cccc(C4CC4)c3)cnc2c1Cl` (stereo not shown) [Compound P-1.19, 3-chloro-6-(3-cyclopropylphenoxy)-N-[2-(2,4-dichlorophenyl)-2-fluoro-ethyl]-2-methyl-pyrazolo[1,5-a]pyrimidine-7-carboxamide], the inhibition of growth at 20 ppm in assay [4] was not below 80%.

For the compound `Cc1nn2c(C(=O)NCC(F)c3ccc(Cl)cc3Cl)c(Oc3cccc(C4CC4)c3)cnc2c1C#N` (stereo not shown) [Compound P-1.20, 3-cyano-6-(3-cyclopropylphenoxy)-N-[2-(2,4-dichlorophenyl)-2-fluoro-ethyl]-2-methyl-pyrazolo[1,5-a]pyrimidine-7-carboxamide], the inhibition of growth at 20 ppm in assay [2] and in assay [4] was not below 80% in each case.

Source of the values: patent publication US20250368652A1, “MICROBIOCIDAL BICYCLIC HETEROCYCLIC CARBOXAMIDE DERIVATIVES” (SYNGENTA CROP PROTECTION AG, priority 2022, published 2025).
